The source made the active and inactive calls.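 How the source made its calls: active means more than half of replicate measurements showing over 20% loss of kinase signal relative to plate controls; inconclusive means some but at most half of replicates over 20% loss; inactive means no replicate over 20% signal loss.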
Target: Glycogen synthase kinase-3 alpha (Homo sapiens) (UniProt P49840)
Experiment: concentration-response blocking of human GSK3A – biochemical, luminescence, cell-free homogeneous, retest, dose response (AID 463203)
Conditions: GSK-3 alpha enzyme, ADP-Glo luminescence, 60 min

Glycogen synthase kinase-3 alpha (Homo sapiens), sequence (P49840 whole entry, looked up): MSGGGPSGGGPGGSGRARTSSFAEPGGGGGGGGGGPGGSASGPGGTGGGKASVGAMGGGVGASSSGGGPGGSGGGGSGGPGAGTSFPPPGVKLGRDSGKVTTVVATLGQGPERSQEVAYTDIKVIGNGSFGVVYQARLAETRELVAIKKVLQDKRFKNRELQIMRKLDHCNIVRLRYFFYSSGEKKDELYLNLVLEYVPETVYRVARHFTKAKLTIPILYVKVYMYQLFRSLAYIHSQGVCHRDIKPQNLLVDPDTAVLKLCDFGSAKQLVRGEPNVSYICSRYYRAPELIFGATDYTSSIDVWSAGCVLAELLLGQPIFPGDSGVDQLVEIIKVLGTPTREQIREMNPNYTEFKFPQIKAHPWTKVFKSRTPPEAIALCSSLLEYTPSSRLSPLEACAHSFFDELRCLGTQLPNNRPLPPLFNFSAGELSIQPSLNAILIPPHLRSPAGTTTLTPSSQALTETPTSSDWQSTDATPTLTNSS

Question: How did the AC50 turn out when `CN(C(=O)/C=C/c1ccc2c(c1)OCO2)c1ccccc1` was run?
Answer: 6.73 µM

Question: For `O=C(NC(=S)Nc1cccc2c(O)cccc12)c1ccccc1[N+](=O)[O-]`, which AC50 is on record?
Answer: > 30 µM (inactive)

Question: With `CCOCCOC(=O)c1[nH]c2c(c1C)C(=O)CC(c1cc(OC)c(OC)c(OC)c1)C2` (configuration not stated) as the compound, how does the AC50 read?
Answer: > 30 µM (inactive)

Question: Which AC50 does the source give for `O=c1[nH]cccc1-c1nc2ccccc2[nH]1` here?
Answer: 4.92 µM

Question: `CC(=O)Nc1ccc(NS(=O)(=O)c2cccc3nonc23)cc1` was tested. Which AC50 did it give?
Answer: > 30 µM (inactive)

Question: Which AC50 does the source give for `Cc1ccc(-c2nnc3n2N=C(c2ccc(Br)cc2)CS3)cc1` here?
Answer: > 30 µM (inactive)

Question: With `O=C(O)C1CC(O)CN1C(=S)Nc1ccccc1` (configuration not stated) as the compound, how does the AC50 read?
Answer: > 30 µM (inactive)

Question: How did the AC50 turn out when `COc1ccc2nc(NC(=O)C3CCCN3S(=O)(=O)c3ccc(C)cc3)sc2c1` (configuration not stated) was run?
Answer: > 30 µM (inactive)

Question: With `CC(C)OC(=O)c1nnn(-c2nonc2N)c1CN1CCCCCC1` as the compound, how does the AC50 read?
Answer: > 30 µM (inactive)

Question: For `CCc1cc2c(NCc3ccco3)ncnc2s1`, which AC50 is on record?
Answer: > 30 µM (inactive)

Question: Which AC50 does the source give for `Cc1cc(C(=O)c2cccs2)c(N)s1` here?
Answer: 15.6 µM

Question: How did the AC50 turn out when `c1ccc(-c2nc3ccccc3[nH]2)cc1` was run?
Answer: > 30 µM (inactive)

Question: How did the AC50 turn out when `CC1(C)CC(=O)C(CS(=O)(=O)c2ccccc2)=C(O)C1` was run?
Answer: > 30 µM (inactive)

Question: How did the AC50 turn out when `Cc1ccc(S(=O)(=O)CCSc2n[nH]c(=O)n2-c2ccccc2)cc1` was run?
Answer: 11.8 µM

Question: Which AC50 does the source give for `CNC(=O)CSc1nnc(-c2ccco2)n1-c1ccccc1OC` here?
Answer: > 30 µM (inactive)

Question: `CC1=Nn2c(nc3sc4c(c3c2=O)CCCC4)SC1` was tested. Which AC50 did it give?
Answer: > 30 µM (inactive)

Question: Which AC50 does the source give for `CC(C)c1nnc(NC(=O)CCN2C(=O)c3ccccc3C2=O)s1` here?
Answer: > 30 µM (inactive)

Question: Which AC50 does the source give for `Cc1ccc(C(=O)N/C(=C\c2ccc(-c3ccc(Cl)cc3)o2)C(=O)NCCCN(C)C)cc1` here?
Answer: > 30 µM (inactive)

Question: How did the AC50 turn out when `CCN(CC)CCNC(=O)c1ccc(NC(=O)C2CCN(c3ncnc4sc(C)c(C)c34)CC2)cc1` was run?
Answer: 22.8 µM

Question: How did the AC50 turn out when `CC(C)CC(=O)NC(=S)Nc1sc2c(c1C(N)=O)CCC2` was run?
Answer: > 30 µM (inactive)

Question: Which AC50 does the source give for `N#C/C(=N\Nc1ccccc1Cl)C(=O)c1ccccc1` here?
Answer: > 30 µM (inactive)

Question: Which AC50 does the source give for `CC12CCC(C(=O)Nc3ncc([N+](=O)[O-])s3)(OC1=O)C2(C)C` (configuration not stated) here?
Answer: > 30 µM (inactive)

Question: How did the AC50 turn out when `CCOC(=O)N1CCc2c(sc3nc4n(c(=O)c23)N=C(C)CS4)C1` was run?
Answer: > 30 µM (inactive)

Question: `CCC(=O)C1CCCN(C(=O)CCc2nnc(-c3ccc4c(c3)OCO4)o2)C1` (configuration not stated) was tested. Which AC50 did it give?
Answer: > 30 µM (inactive)

Question: With `Cn1cc(C(=O)c2cccc(Cl)c2)cc1/C=N\O` as the compound, how does the AC50 read?
Answer: 28.3 µM

Question: `CNC(=O)c1ccsc1NC(=O)C1CCCN1S(=O)(=O)c1cccs1` (configuration not stated) was tested. Which AC50 did it give?
Answer: 17.2 µM

Question: Which AC50 does the source give for `CC1CCN(Cc2c(C(=O)N/N=C/c3cccc(Cl)c3)nnn2-c2nonc2N)CC1` here?
Answer: 2.73 µM

Question: With `Cc1ccnc2ccc(SC(F)(F)F)cc12` as the compound, how does the AC50 read?
Answer: > 30 µM (inactive)

Question: Which AC50 does the source give for `COC(=O)c1c(NC(=O)Cc2cccs2)sc2c1CCCC2` here?
Answer: > 30 µM (inactive)

Question: With `Brc1cccc(CSc2nnc(-c3ccncc3)o2)c1` as the compound, how does the AC50 read?
Answer: 7.58 µM

Question: How did the AC50 turn out when `COc1cc(/C=N/O)ccc1OCc1ccc([N+](=O)[O-])cc1` was run?
Answer: > 30 µM (inactive)

Question: Which AC50 does the source give for `Cc1ccc(/C=N/NC(=O)c2nnn(-c3nonc3N)c2CN(C)C2CCCCC2)cc1` here?
Answer: > 30 µM (inactive)

Question: For `CCOc1ccc(N2C(=O)C3C(c4ccccc4F)NN(C(=O)c4ccc(C)cc4)C3C2=O)cc1` (configuration not stated), which AC50 is on record?
Answer: > 30 µM (inactive)

Question: With `CCOc1ccc(Cn2nnc(C(=O)Nc3cc(C)cc(C)c3)c2N)cc1` as the compound, how does the AC50 read?
Answer: > 30 µM (inactive)

Question: Which AC50 does the source give for `CC(NC(=O)COc1ccccc1F)C1CC2CCC1C2` (configuration not stated) here?
Answer: > 30 µM (inactive)

Question: With `CN(C)C(=S)Nc1ccc([N+](=O)[O-])cc1` as the compound, how does the AC50 read?
Answer: > 30 µM (inactive)

Question: For `COc1ccc(-c2cn3cccnc3n2)cc1NC(=O)CC(C)C`, which AC50 is on record?
Answer: > 30 µM (inactive)

Question: Which AC50 does the source give for `CCn1ccc(C(=O)Nc2ccsc2C(=O)OC)n1` here?
Answer: 30.8 µM

Question: Which AC50 does the source give for `COc1ccccc1N1C(=O)C2C(c3ccc(F)cc3)NN(C(=O)c3ccc(C)cc3)C2C1=O` (configuration not stated) here?
Answer: > 30 µM (inactive)

Question: How did the AC50 turn out when `COc1ccc(CNC(=O)c2cc(COc3c(F)cccc3F)on2)cc1OC` was run?
Answer: > 30 µM (inactive)

Question: For `COCCNc1cc(N)c([N+](=O)[O-])cc1[N+](=O)[O-]`, which AC50 is on record?
Answer: > 30 µM (inactive)

Question: Which AC50 does the source give for `CC1=C(C(=O)OCc2ccc3c(c2)OCO3)C(c2ccccc2)NC(=O)N1` (configuration not stated) here?
Answer: 1.97 µM

Question: For `NS(=O)(=O)c1ccc(-c2ccc(/C=C3\SC(=O)NC3=O)o2)cc1`, which AC50 is on record?
Answer: 5.29 µM

Question: `COc1ccc(CC(=O)N2CCOCC2)cc1` was tested. Which AC50 did it give?
Answer: > 30 µM (inactive)

Question: For `COc1cc2c(cc1OC)C(C)N(C(=O)Cn1ncc3c1-c1cc(C)ccc1OC3)CC2` (configuration not stated), which AC50 is on record?
Answer: > 30 µM (inactive)

Question: With `Nc1ncnc2c1ncn2[C@@H]1O[C@H](COS(=O)(=O)O)[C@@H](O)[C@H]1O` as the compound, how does the AC50 read?
Answer: > 30 µM (inactive)

Question: Which AC50 does the source give for `CCCc1cc(NCc2ccccn2)n2c(nc3ccccc32)c1C#N` here?
Answer: > 30 µM (inactive)

Question: Which AC50 does the source give for `CCOC(=O)N1CCC(N2CCN(S(=O)(=O)c3ccc(NC(C)=O)cc3)CC2)CC1` here?
Answer: > 30 µM (inactive)

Question: Which AC50 does the source give for `Cc1ccc(C)c(-n2c3nc(=O)n(C)c(=O)c-3cc3ccccc32)c1` here?
Answer: 31.3 µM

Question: With `Cc1nc2ccc(-c3ccccc3)cc2o1` as the compound, how does the AC50 read?
Answer: > 30 µM (inactive)

Question: For `CCOC(=O)c1cc[nH]c1C`, which AC50 is on record?
Answer: > 30 µM (inactive)

Question: For `C=CCNc1nc(N)c(C(=O)c2ccc3c(c2)OCO3)s1`, which AC50 is on record?
Answer: 0.211 µM
